From patent EP0485583B1, “USE OF TETRAHYDROISOQUINOLINE DERIVATIVES FOR PREPARING ANTITUMORAL DRUGS” (ROUSSEL-UCLAF, priority 1990, dated 1991)

Biological target: T1, tyrosinekinase du récepteur de l'EGF (Epidermal Growth Factor) (Homo sapiens, UniProt P00533)
T1 construct: On utilise des membranes de cellules A431 (ATCC CRL 1555) comme source de récepteurs de l'EGF; host or cells: A431 cell membranes
Experiment: Inhibition of EGF receptor tyrosine kinase (A431 cell membranes, 32P incorporation into poly(Glu, Ala, Tyr 6:3:1))
Type: biochemical
Settings: A431 cell membranes (ATCC CRL 1555); samples containing substrate poly(Glu, Ala, Tyr 6:3:1) and EGF; 15 minutes at 30°C; dilution series starting at 51 microgrammes/ml; read-out: CI₅₀ (converted)
Method: Mesure de l'inhibition de la tyrosinekinase du récepteur de l'EGF (Epidermal Growth Factor).
Cette lignée cellulaire exprime à sa surface un grand nombre de récepteur de l'EGF qui possèdent une activité tyrosinekinase.
Ces cellules sont préincubées avec ou sans EGF (1000 nM) pendant 15 minutes et ajoutées au tampon HEPES (acide N-2-hydroxyéthyl-piperazine N'-2-éthanesulfonique) correspondant (avec ou sans EGP) et contenant des ions Mg²⁺ (10 mM) et Mn²⁺ (2 mM) 0,2 % de triton X-100, de l'orthovanadate de sodium (20 micromoles) et l'inhibiteur.
Des échantillons contenant ou ne contenant pas le substrat poly(Glu, Ala, Tyr 6 : 3 : 1) sont préparés. On initie la réaction par addition de [gamma³²P] ATP (32 micromoles). Après incubation pendant 15 minutes à 30°C les échantillons sont précipités à l'aide d'acide […] à 10 %, filtrés sur membrane Millipore ® et le ³²P incorporé est mesuré avec un compteur de scintillation liquide.

T1 sequence (P00533 25-1210): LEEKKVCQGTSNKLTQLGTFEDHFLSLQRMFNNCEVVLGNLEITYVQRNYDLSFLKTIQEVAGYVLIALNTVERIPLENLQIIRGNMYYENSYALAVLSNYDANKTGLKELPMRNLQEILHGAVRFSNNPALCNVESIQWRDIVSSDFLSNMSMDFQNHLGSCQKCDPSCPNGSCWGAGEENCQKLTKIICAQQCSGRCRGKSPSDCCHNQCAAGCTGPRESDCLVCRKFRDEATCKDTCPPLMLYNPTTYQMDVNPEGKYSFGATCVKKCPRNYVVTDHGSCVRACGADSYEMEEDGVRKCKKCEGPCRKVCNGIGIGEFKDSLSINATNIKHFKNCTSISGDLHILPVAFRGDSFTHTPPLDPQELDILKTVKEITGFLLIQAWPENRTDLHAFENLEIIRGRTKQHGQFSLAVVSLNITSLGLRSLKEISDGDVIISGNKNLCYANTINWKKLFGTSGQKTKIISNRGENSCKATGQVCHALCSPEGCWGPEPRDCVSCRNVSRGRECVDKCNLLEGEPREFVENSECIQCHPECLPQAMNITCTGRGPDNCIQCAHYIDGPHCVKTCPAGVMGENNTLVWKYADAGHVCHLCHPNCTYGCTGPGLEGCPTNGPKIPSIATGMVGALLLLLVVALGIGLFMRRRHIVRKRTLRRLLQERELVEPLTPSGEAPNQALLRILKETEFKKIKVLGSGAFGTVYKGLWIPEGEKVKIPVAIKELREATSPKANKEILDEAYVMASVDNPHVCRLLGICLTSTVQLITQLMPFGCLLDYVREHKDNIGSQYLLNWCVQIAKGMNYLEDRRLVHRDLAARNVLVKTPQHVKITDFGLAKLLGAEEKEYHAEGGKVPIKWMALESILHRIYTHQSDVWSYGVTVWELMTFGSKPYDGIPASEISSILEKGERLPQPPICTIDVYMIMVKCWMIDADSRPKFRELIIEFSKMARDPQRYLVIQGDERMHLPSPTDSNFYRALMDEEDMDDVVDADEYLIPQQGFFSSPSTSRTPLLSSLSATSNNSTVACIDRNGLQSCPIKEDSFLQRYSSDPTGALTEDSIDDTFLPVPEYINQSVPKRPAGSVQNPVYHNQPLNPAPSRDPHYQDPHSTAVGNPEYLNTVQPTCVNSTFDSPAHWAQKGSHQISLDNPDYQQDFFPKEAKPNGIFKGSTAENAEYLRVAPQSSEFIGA

Question: For Oc1ccc(CC2NCCc3cc(O)c(O)cc32)cc1O (stereo not drawn) [Produit A, 1-[(3,4-dihydroxyphényl)méthyl] 1,2,3,4-tétrahydro isoquinoléïne 6,7-diol], which IC50 is on record?
Answer: 3.83 µM

Question: For Oc1ccc2[nH]c3c(c2c1)CCNC3Cc1ccc(O)c(O)c1 (stereo not drawn) [Produit B, 1,2-benzènediol 4-(2,3,4,9-tétrahydro 6-hydroxy-1H-pyrido[3,4-b]indol 1-yl) méthyl], which IC50 is on record?
Answer: 8.06 µM

Question: Oc1cc2c(cc1O)CC(Cc1ccccc1)NC2 (stereo not drawn) [Produit de l'exemple 1, Bromhydrate du 3-phénylméthyl 1,2,3,4-tétrahydro, isoquinoléïne 6,7-diol] was tested. Which IC50 did it give?
Answer: 13.3 µM
